Laboratory results reported in patent US20120058989A1, “ANTIBACTERIAL FLUOROQUINOLONE ANALOGS” (Achaogen, Inc., priority 2008, published 2012).
Converted amounts (≈) assume the structure as drawn. Where two headings read alike, the source gives them in different places. Values belong to the compound of their own block, whether it stands above or below them.

Key:
Test in all cases: MIC, CLSI broth microdilution
Assay type in all cases: cell-based
[1] = test system: P. aeruginosa APAE001 (Fluoroquinolone-susceptible, ATCC27853); settings: for MIC: Pseudomonas aeruginosa
Procedure, shortened: (§1)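 Broth microdilution per CLSI M7-A7, with serial two-fold compound dilutions in Mueller Hinton Broth mixed 1:1 with inoculum. Colonies from a previous-day agar plate were suspended in saline to a final 5×10^5 CFU/mL. Plates were incubated 20 hours at 35° C. in ambient air.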

[2] = test system: S. aureus ASAU1033 (Fluoroquinolone-resistant); settings: Table 3
Procedure, shortened: as §1

[3] = test system: S. aureus ASAU1031 (Fluoroquinolone-resistant); settings: for MIC: Staphylococcus aureus
Procedure, shortened: as §1

[4] = test system: S. pneumoniae ASPN1018 (Fluoroquinolone-resistant); settings: Table 3
Procedure, shortened: as §1

[5] = test system: E. coli AECO066 (Fluoroquinolone-resistant); settings: for MIC: Escherichia coli
Procedure, shortened: as §1

[6] = test system: A. baumannii AABA1020 (Fluoroquinolone-resistant); settings: Table 3
Procedure, shortened: as §1

[7] = test system: P. aeruginosa APAE054 (Fluoroquinolone-resistant); settings: for MIC: Pseudomonas aeruginosa
Procedure, shortened: as §1

[8] = test system: E. coli AECO001 (Fluoroquinolone susceptible, ATCC25922); settings: for MIC: Escherichia coli
Procedure, shortened: as §1

[9] = test system: A. baumannii AABA1065 (Fluoroquinolone-susceptible); settings: for MIC: Acinetobacter baumannii
Procedure, shortened: as §1

[10] = test system: E. coli AECO086 (Fluoroquinolone-resistant); settings: Table 3
Procedure, shortened: as §1

[11] = test system: E. coli AECO002 (Fluoroquinolone susceptible); settings: Table 3
Procedure, shortened: as §1

[12] = test system: P. aeruginosa APAE002 (Fluoroquinolone susceptible); settings: Table 3
Procedure, shortened: as §1

[13] = test system: S. pneumoniae ASPN001 (Fluoroquinolone-susceptible, ATCC49619); settings: for MIC: Streptococcus pneumoniae
Procedure, shortened: as §1

[14] = test system: S. aureus ASAU002 (Fluoroquinolone-susceptible, ATCC33591 (MRSA)); settings: Table 3
Procedure, shortened: as §1

[15] = test system: S. pneumoniae ASPN002 (Fluoroquinolone-susceptible, ATCC10813); settings: Table 3
Procedure, shortened: as §1

[16] = test system: S. aureus ASAU001 (Fluoroquinolone-susceptible, ATCC29213); settings: for MIC: Staphylococcus aureus
Procedure, shortened: as §1

[17] = test system: S. pneumoniae ASPN1027 (Fluoroquinolone-resistant); settings: for MIC: Streptococcus pneumoniae
Procedure, shortened: as §1

[18] = test system: A. baumannii AABA1009 (Fluoroquinolone-resistant); settings: for MIC AABA 1009: Table 2
Procedure, shortened: as §1

MIC ([1]; Table 2, read-out: MIC APAE 001): 1 to 8 µg/mL (≈ 2.69 to 21.5 µM)
MIC ([1]; Table 3): < 1 µg/mL
MIC ([2]; Staphylococcus aureus): > 8 µg/mL
MIC ([3]; Table 2, read-out: MIC ASAU 1031): 1 to 8 µg/mL (≈ 2.69 to 21.5 µM)
MIC ([3]; Table 3): 2 to 8 µg/mL (≈ 5.38 to 21.5 µM)
MIC ([4]; Streptococcus pneumoniae): 1 to 2 µg/mL (≈ 2.69 to 5.38 µM)
MIC ([5]; Table 2, read-out: MIC AECO 066): 1 to 8 µg/mL (≈ 2.69 to 21.5 µM)
MIC ([5]; Table 3): 2 to 8 µg/mL (≈ 5.38 to 21.5 µM)
MIC ([6]; Acinetobacter baumannii): > 8 µg/mL
MIC ([7]; Table 2, read-out: MIC APAE 054): > 8 µg/mL
MIC ([7]; Table 3): > 8 µg/mL
MIC ([8]; Table 2, 35° C., 20 hours, read-out: MIC AECO 001): ≤ 1 µg/mL
MIC ([8]; Table 3): < 1 µg/mL
MIC ([9]; Table 2, read-out: MIC AABA 1065): ≤ 1 µg/mL
MIC ([9]; Table 3): < 1 µg/mL
MIC ([10]; Escherichia coli): 2 to 8 µg/mL (≈ 5.38 to 21.5 µM)
MIC ([11]; Escherichia coli): < 1 µg/mL
MIC ([12]; Pseudomonas aeruginosa): < 1 µg/mL
MIC ([13]; Table 2, read-out: MIC ASPN 001): ≤ 1 µg/mL
MIC ([13]; Table 3): < 1 µg/mL
MIC ([14]; Staphylococcus aureus): < 1 µg/mL
MIC ([15]; Streptococcus pneumoniae): < 1 µg/mL
MIC ([16]; Table 2, read-out: MIC ASAU 001): ≤ 1 µg/mL
MIC ([16]; Table 3): < 1 µg/mL
MIC ([17]; Table 2, read-out: MIC ASPN 1027): 1 to 8 µg/mL (≈ 2.69 to 21.5 µM)
MIC ([17]; Table 3): 2 to 8 µg/mL (≈ 5.38 to 21.5 µM)
MIC ([18]; Acinetobacter baumannii, Table 2, read-out: MIC AABA 1009): > 8 µg/mL
SMILES: N[C@H]1C[C@H]2CCCc3c(c(F)cc4c(=O)c(C(=O)O)cn(C5CC5)c34)N2C1 [3/15]

MIC APAE 001 ([1]; Table 2): A (MIC's of 1.0 μg/mL or less = A)
MIC APAE 001 ([1]; Table 3): A (MIC's of less than 1.0 = A)
MIC ASAU1033 [2]: D (MIC's of greater than 8.0 μg/mL = D)
MIC ASAU 1031 ([3]; Table 3): C (MIC's of 2.0 μg/mL to 8.0 μg/mL = C)
MIC ASPN1018 [4]: B (MIC's of 1.0 μg/mL to 2.0 μg/mL = B)
MIC AECO 066 ([5]; Table 3): C (MIC's of 2.0 μg/mL to 8.0 μg/mL = C)
MIC AABA1020 [6]: C (MIC's of 2.0 μg/mL to 8.0 μg/mL = C)
MIC APAE 054 ([7]; Table 2): C (MIC's of greater than 8.0 μg/mL = C)
MIC APAE 054 ([7]; Table 3): D (MIC's of greater than 8.0 μg/mL = D)
MIC AECO 001 ([8]; Table 2, 35° C., 20 hours): A (MIC's of 1.0 μg/mL or less = A)
MIC AECO 001 ([8]; Table 3): A (MIC's of less than 1.0 = A)
MIC AABA 1065 ([9]; Table 2): A (MIC's of 1.0 μg/mL or less = A)
MIC AABA 1065 ([9]; Table 3): A (MIC's of less than 1.0 = A)
MIC AECO086 [10]: C (MIC's of 2.0 μg/mL to 8.0 μg/mL = C)
MIC AECO002 [11]: A (MIC's of less than 1.0 = A)
MIC APAE002 [12]: A (MIC's of less than 1.0 = A)
MIC ASPN 001 ([13]; Table 2): A (MIC's of 1.0 μg/mL or less = A)
MIC ASPN 001 ([13]; Table 3): A (MIC's of less than 1.0 = A)
MIC ASAU002 [14]: A (MIC's of less than 1.0 = A)
MIC ASPN002 [15]: A (MIC's of less than 1.0 = A)
MIC ASAU 001 ([16]; Table 2): A (MIC's of 1.0 μg/mL or less = A)
MIC ASAU 001 ([16]; Table 3): A (MIC's of less than 1.0 = A)
MIC ASPN 1027 ([17]; Table 3): C (MIC's of 2.0 μg/mL to 8.0 μg/mL = C)
MIC AABA 1009 [18]: C (MIC's of greater than 8.0 μg/mL = C)
SMILES: N[C@H]1C[C@H]2CC=Cc3c(c(F)cc4c(=O)c(C(=O)O)cn(C5CC5)c34)N2C1.O=C(O)C(F)(F)F [7B/18, (7aR,9S)-9-Amino-4-cyclopropyl-12-fluoro-1-oxo-4,7,7a,8,9,10-hexahydro-1H-pyrrolo[1′,2′:1,7]azepino[2,3h]-quinoline-2-carboxylic acid trifluoroacetate]
MIC ASAU 1031 ([3]; Table 2): B (MIC's of greater than 1.0 μg/mL to 8.0 μg/mL = B)
MIC AECO 066 ([5]; Table 2): B (MIC's of greater than 1.0 μg/mL to 8.0 μg/mL = B)
MIC ASPN 1027 ([17]; Table 2): B (MIC's of greater than 1.0 μg/mL to 8.0 μg/mL = B)

MIC APAE 001 ([1]; Table 2): C (MIC's of greater than 8.0 μg/mL = C)
MIC ASAU 1031 ([3]; Table 2): C (MIC's of greater than 8.0 μg/mL = C)
MIC AECO 066 ([5]; Table 2): C (MIC's of greater than 8.0 μg/mL = C)
MIC APAE 054 ([7]; Table 2): C (MIC's of greater than 8.0 μg/mL = C)
MIC ASAU 001 ([16]; Table 2): A (MIC's of 1.0 μg/mL or less = A)
MIC ASPN 1027 ([17]; Table 2): C (MIC's of greater than 8.0 μg/mL = C)
MIC AABA 1009 [18]: C (MIC's of greater than 8.0 μg/mL = C)
SMILES: CON=C1Cc2c(c(F)cc3c(=O)c(C(=O)O)cn(C4CC4)c23)N2CCCC2C1 (centres unmarked) [27/11, 4-Cyclopropyl-12-fluoro-6-(methoxyimino)-1-oxo-4,5,6,7,7a,8,9,10-octahydro-1H-pyrrolo[1′,2′:1,7]azepino[2,3-h]quinoline-2-carboxylic acid]
MIC AECO 001 ([8]; Table 2, 35° C., 20 hours): B (MIC's of greater than 1.0 μg/mL to 8.0 μg/mL = B)
MIC AABA 1065 ([9]; Table 2): B (MIC's of greater than 1.0 μg/mL to 8.0 μg/mL = B)
MIC ASPN 001 ([13]; Table 2): B (MIC's of greater than 1.0 μg/mL to 8.0 μg/mL = B)

MIC APAE 001 ([1]; Table 2): C (MIC's of greater than 8.0 μg/mL = C)
MIC AECO 066 ([5]; Table 2): C (MIC's of greater than 8.0 μg/mL = C)
MIC APAE 054 ([7]; Table 2): C (MIC's of greater than 8.0 μg/mL = C)
MIC ASAU 001 ([16]; Table 2): A (MIC's of 1.0 μg/mL or less = A)
MIC ASPN 1027 ([17]; Table 2): C (MIC's of greater than 8.0 μg/mL = C)
MIC AABA 1009 [18]: C (MIC's of greater than 8.0 μg/mL = C)
SMILES: O=C(O)c1cn(C2CC2)c2c3c(c(F)cc2c1=O)N1CCCC1CC(=NO)C3 (centres unmarked) [27/12, 4-Cyclopropyl-12-fluoro-6-(hydroxyimino)-1-oxo-4,5,6,7,7a,8,9,10-octahydro-1H-pyrrolo[1′,2′:1,7]azepino[2,3-h]quinoline-2-carboxylic acid]
MIC ASAU 1031 ([3]; Table 2): B (MIC's of greater than 1.0 μg/mL to 8.0 μg/mL = B)
MIC AECO 001 ([8]; Table 2, 35° C., 20 hours): B (MIC's of greater than 1.0 μg/mL to 8.0 μg/mL = B)
MIC AABA 1065 ([9]; Table 2): B (MIC's of greater than 1.0 μg/mL to 8.0 μg/mL = B)
MIC ASPN 001 ([13]; Table 2): B (MIC's of greater than 1.0 μg/mL to 8.0 μg/mL = B)
